Consider twelve molecules from the RepoRT retention time repository.

The series in a line: RP, Waters ACQUITY UPLC HSS T3, 100 × 2.1 mm, 1.8 µm, 0.3 mL/min, estimated dead time 0.73 min; A: water + 0.1% formic acid, pH 3; B: methanol + 0.1% formic acid, pH 3; gradient (min/%B) 0/1 1/15 4/35 7/95 9/95 10/1 14/95. Particulars: stereoisomer not certain.
Take `O=c1ccn(C2OC(CO)C(O)C2O)c(=O)[nH]1` (configuration not stated) [uridine]: the LC retention time is 2.2 min. The figure for `CC(C)CC(N)C(=O)O` (configuration not stated) [leucine] is 2.53 min; for `Cc1cc2nc3c(=O)[nH]c(=O)nc-3n(CC(O)C(O)C(O)CO)c2cc1C` (configuration not stated) [riboflavin] it is 7.22 min; for `O=C1CC(C(=O)O)NC(=O)N1` [L-dihydroorotic acid] it is 1.07 min. Under `O=[N+]([O-])c1ccccc1O` [2-nitrophenol] stands 8.45 min; under `NC(Cc1ccccc1)C(=O)O` (configuration not stated) [phenylalanine], 4.45 min. Consider `CSCCC(N)C(=O)O` (configuration not stated) [methionine], for which the LC retention time is 1.21 min. The figure for `CC12CCC3c4ccc(O)cc4CCC3C1CCC2O` (configuration not stated) [estradiol] is 19.7 min; for `NC(Cc1c[nH]c2ccccc12)C(=O)O` (configuration not stated) [tryptophan] it is 5.45 min; for `CC(=O)C1CCC2C3CCC4=CC(=O)CCC4(C)C3CCC12C` (configuration not stated) [progesterone] it is 10.1 min. `O=C(O)CC(O)(CC(=O)O)C(=O)O` [citric acid monohydrate]: the LC retention time was 8.41 min. Under `CC(CCC(=O)NCC(=O)O)C1CCC2C3C(O)CC4CC(O)CCC4(C)C3CC(O)C12C` (configuration not stated) [sodium glycocholate hydrate] stands 11 min.
